How the values were obtained:
Format in all cases: cell-based
[1] = test system: Jurkat cells (acute lymphoblastic leukemia); assay: MTT cell viability, leukemia cells, TTD and Acla A alone and combined; conditions: Homo sapiens, 72 h, MTT
Experimental: (§1) Well-growing leukemia cells were obtained and inoculated into wells of a 96-well cell culture plate at 5000 cells/well. Individual compounds of various concentrations were added, mixed uniformly, and incubated (5% CO2) at 37° C. for 72 hours. Then the cell viability was determined by the MTT method.
(§2) b) Determine the inhibitory effects of TTD in combination with Ada A on leukemia cells in vitro. The pretreatment of the cells was the same as in a). The control group was not treated with the compound while administered. […] After 72 hours of incubation, the MTT method was used for the determination of cell viability. The cell viability of the control group was set to 100% in this experiment, and the TTD, Ada A single drug and combined effects on cell viability (%) were calculated.

[2] = test system: kasumi-1 cells (acute myeloid leukemia M2 type); assay: as above; conditions: Homo sapiens, 72 h, MTT
Experimental: as §1, §2

[3] = test system: k562/ADR leukemia cells (drug-resistant chronic myeloid leukemia); assay: as above; conditions: Homo sapiens, k562/ADR, 72 h, MTT
Experimental: as §1, §2

[4] = test system: CaES-17 (esophageal cancer cell); assay: MTT cell viability, human solid tumor cells
Experimental: (§3) Well-growing cells of above were obtained and inoculated into wells of a 96-well cell culture plate at 5000 cells/well. Individual compounds of various concentrations were added, mixed uniformly, and incubated (5% CO2) at 37° C. for 72 hours. Then the cell viability was determined by the MTT method.
(§4) b) Determine the inhibitory effects of TTD in combination with Ada A on the human solid tumor cells. The pretreatment of the cells was the same as in a). The control group was not treated with the compound while administered. The two single-drug groups were added with respective active component to the concentration under which the IC50 of two compounds in a) achieve. As to the combination group, two compounds were added together into the same group of wells, with the fmal concentration being the concentration to which the IC50 of the single drugs correspond. After 72 hours of incubation, the MTT method was used for the determination of cell viability. The cell viability of the control group was set to 100% in this experiment, and the TTD, Ada A single drug and combined effects on cell viability (%) were calculated.

[5] = test system: CNE (nasopharyngeal carcinoma cell); assay: MTT cell viability, human solid tumor cells; conditions: CNE, 72 h, MTT
Experimental: as §3
as §4, with “The two single-drug groups were added with respective active component to the concentration under which the IC50 of two compounds in a) achieve.” left out

[6] = test system: Becap-37 (human breast cancer cell); assay: MTT cell viability, human solid tumor cells; conditions: 72 h, MTT
Experimental: as §3
as §4, with “The two single-drug groups were added with respective active component to the concentration under which the IC50 of two compounds in a) achieve.” left out

[7] = test system: MGC-803 (human gastric cancer cell); assay: MTT cell viability, human solid tumor cells; conditions: 72 h, MTT
Experimental: as §3
as §4, with “The two single-drug groups were added with respective active component to the concentration under which the IC50 of two compounds in a) achieve.” left out

PC-3 (prostate cancer) = assay: MTT cell viability, human solid tumor cells; conditions: 72 h, MTT
Experimental: as §3
as §4, with “The two single-drug groups were added with respective active component to the concentration under which the IC50 of two compounds in a) achieve.” left out

[8] = test system: SPC-A-1 (human lung adenocarcinoma cell); assay: MTT cell viability, human solid tumor cells; conditions: 72 h, MTT
Experimental: as §3
as §4, with “The two single-drug groups were added with respective active component to the concentration under which the IC50 of two compounds in a) achieve.” left out

[9] = test system: Huh7 (human liver cancer cell); assay: MTT cell viability, human solid tumor cells; conditions: 72 h, MTT
Experimental: as §3
as §4, with “The two single-drug groups were added with respective active component to the concentration under which the IC50 of two compounds in a) achieve.” left out

MG63 (osteosarcoma) = assay: MTT cell viability, human solid tumor cells; conditions: 72 h, MTT
Experimental: as §3
as §4, with “The two single-drug groups were added with respective active component to the concentration under which the IC50 of two compounds in a) achieve.” left out

[10] = test system: Hela (human cervical cancer cell); assay: MTT cell viability, human solid tumor cells; conditions: Hela, 72 h, MTT
Experimental: as §3
as §4, with “The two single-drug groups were added with respective active component to the concentration under which the IC50 of two compounds in a) achieve.” left out

[11] = test system: Hep2 (laryngeal carcinoma); assay: MTT cell viability, human solid tumor cells; conditions: 72 h, MTT
Experimental: as §3
as §4, with “The two single-drug groups were added with respective active component to the concentration under which the IC50 of two compounds in a) achieve.” left out

[12] = test system: RKO (human colon adenocarcinoma cell); assay: MTT cell viability, human solid tumor cells; conditions: RKO, 72 h, MTT
Experimental: as §3
as §4, with “The two single-drug groups were added with respective active component to the concentration under which the IC50 of two compounds in a) achieve.” left out

[13] = test system: U87-MG (malignant glioma cell); assay: MTT cell viability, human solid tumor cells; conditions: U-87 MG, U87-MG, 72 h, MTT
Experimental: as §3
as §4, with “The two single-drug groups were added with respective active component to the concentration under which the IC50 of two compounds in a) achieve.” left out

[14] = test system: Hep G2 (human hepatoma carcinoma cell); assay: MTT cell viability, human solid tumor cells; conditions: 72 h, MTT
Experimental: as §3
as §4, with “The two single-drug groups were added with respective active component to the concentration under which the IC50 of two compounds in a) achieve.” left out

[15] = test system: Raji (human Burkitt lymphoma cells); assay: MTT cell viability, lymphoma and myeloma cells; conditions: 72 h, MTT
Experimental: (§5) Well-growing cells of above were obtained and inoculated into wells of a 96-well cell culture plate at 5000 cells/well. Separate compounds of various concentrations were added, mixed uniformly, and incubated (5% CO2) at 37° C. for 72 hours. Then the cell viability was determined by the MTT method.
(§6) b) Determine the inhibitory effects of TTD in combination with Ada A on the above cells. The pretreatment of the cells was the same as in a). The control group was not treated with the compound while administered. […] As to the combination group, two compounds were added together into the same group of wells, with the fmal concentrations being the concentrations to which the IC50 values of the two single drugs correspond. After 72 hours of incubation, the MTT method was used for the determination of cell viability. The cell viability of the control group was set to 100% in this experiment, and the TTD, Ada A single drug and combined effects on cell viability (%) were calculated.

[16] = test system: RPMI 8226 (multiple myeloma); assay: MTT cell viability, lymphoma and myeloma cells; conditions: Homo sapiens; RPMI 8226, single compound, 72 h, MTT; read-out: concentration (IC50 value of 72 hours)
Experimental: as §5, §6

[17] = single compound, read-out: concentration (IC50 value of 72 hours)

Compound: COc1ccc2cc1Oc1ccc(cc1)C[C@H]1c3cc(c(OC)cc3CCN1C)Oc1c(OC)c(OC)cc3c1[C@H](C2)N(C)CC3 [TTD, tetrandrine]
- viability at 1.69 µg/mL ([1]; TTD 1.69 μg/mL, control = 100%, read-out: CV (cell viability)): 52.3%
- IC50 [1, 17]: 1.69 mg/L
- viability at 2 µg/mL ([2]; kasumi-1, TTD 2 μg/mL, control = 100%, read-out: CV (cell viability)): 51.7%
- IC50 ([2]; kasumi-1, single compound, read-out: concentration (IC50 value of 72 hours)): 2 mg/L
- viability at 0.6 µg/mL ([3]; TTD 0.6 μg/mL, control = 100%, read-out: CV (cell viability)): 48%
- IC50 [3, 17]: 0.6 mg/L
- viability at 3.59 µg/mL ([4]; CaEs17, 72 h, read-out: CV (cell viability)): 47.1%
- IC50 ([4]; CaEs17, CaES-17, single compound, 72 h, MTT, read-out: concentration (IC50 value of 72 hours)): 3.59 mg/L
- viability at 3 µg/mL ([5]; TTD 3 μg/mL, control = 100%, read-out: CV (cell viability)): 51.9%
- IC50 [5, 17]: 3 mg/L
- viability at 3 µg/mL ([6]; Becap-37, TTD 3 μg/mL, control = 100%, read-out: CV (cell viability)): 56.1%
- IC50 ([6]; Becap-37, single compound, read-out: concentration (IC50 value of 72 hours)): 3 mg/L
- viability at 3 µg/mL ([7]; MGC-803, TTD 3 μg/mL, control = 100%, read-out: CV (cell viability)): 50.9%
- IC50 ([7]; MGC-803, single compound, read-out: concentration (IC50 value of 72 hours)): 3 mg/L
- viability at 4.5 µg/mL (PC-3 (prostate cancer); PC-3, TTD 4.5 μg/mL, control = 100%, read-out: CV (cell viability)): 47%
- IC50 (PC-3 (prostate cancer); PC-3, single compound, read-out: concentration (IC50 value of 72 hours)): 4.5 mg/L
- viability at 3.5 µg/mL ([8]; SPCA1, SPC-A-1, TTD 3.5 μg/mL, control = 100%, read-out: CV (cell viability)): 52.5%
- IC50 ([8]; SPCA1, SPC-A-1, single compound, read-out: concentration (IC50 value of 72 hours)): 3.5 mg/L
- viability at 3 µg/mL ([9]; Huh-7, Huh7, TTD 3 μg/mL, control = 100%, read-out: CV (cell viability)): 54%
- IC50 ([9]; Huh-7, Huh7, single compound, read-out: concentration (IC50 value of 72 hours)): 3 mg/L
- viability at 2 µg/mL (MG63 (osteosarcoma); MG-63, MG63, TTD 2 μg/mL, control = 100%, read-out: CV (cell viability)): 40.8%
- IC50 (MG63 (osteosarcoma); MG-63, MG63, single compound, read-out: concentration (IC50 value of 72 hours)): 2 mg/L
- viability at 1.25 µg/mL ([10]; TTD 1.25 μg/mL, control = 100%, read-out: CV (cell viability)): 47%
- IC50 [10, 17]: 1.25 mg/L
- viability at 2.59 µg/mL ([11]; HEp-2, Hep2, TTD 2.59 μg/mL, control = 100%, read-out: CV (cell viability)): 43.8%
- IC50 ([11]; HEp-2, Hep2, single compound, read-out: concentration (IC50 value of 72 hours)): 2.59 mg/L
- viability at 1.5 µg/mL ([12]; TTD 1.5 μg/mL, control = 100%, read-out: CV (cell viability)): 45.3%
- IC50 [12, 17]: 1.5 mg/L
- viability at 2.37 µg/mL ([13]; TTD 2.37 μg/mL, control = 100%, read-out: CV (cell viability)): 47.7%
- IC50 [13, 17]: 2.37 mg/L
- viability at 1.5 µg/mL ([14]; HepG2, Hep G2, TTD 1.5 μg/mL, control = 100%, read-out: CV (cell viability)): 52.5%
- IC50 ([14]; HepG2, Hep G2, single compound, read-out: concentration (IC50 value of 72 hours)): 1.5 mg/L
- viability at 1 µg/mL ([15]; TTD 1 μg/mL, control = 100%, read-out: CV (cell viability)): 46.9%
- IC50 [15, 17]: 1 mg/L
- IC50 [16]: 0.3 mg/L
